ChEMBL document CHEMBL1123048 (J Med Chem, 1985)
≈ marks a conversion by molar mass, not a printed value.

What was measured:
Adenosine receptor A1 [1] = molecular target: T1, Adenosine receptor A1 (Rattus norvegicus, UniProt P25099)
T1 sequence (P25099 whole entry): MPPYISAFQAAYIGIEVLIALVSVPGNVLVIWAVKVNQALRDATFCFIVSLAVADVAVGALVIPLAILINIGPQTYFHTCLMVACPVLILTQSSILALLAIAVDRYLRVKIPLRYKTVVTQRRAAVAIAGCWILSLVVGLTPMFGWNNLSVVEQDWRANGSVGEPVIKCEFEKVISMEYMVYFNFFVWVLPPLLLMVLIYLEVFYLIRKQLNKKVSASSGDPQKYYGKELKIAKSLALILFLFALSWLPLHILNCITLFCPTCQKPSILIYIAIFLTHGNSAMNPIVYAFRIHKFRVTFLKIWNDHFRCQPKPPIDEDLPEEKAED
Description: Binding affinity towards adenosine A1 receptor in rat cerebral cortical membranes by [3H]cyclohexyladenosine displacement.

Adenosine receptor A1 [2] = molecular target: T1, Adenosine receptor A1; assay: Binding affinity towards adenosine A1 receptor in rat cerebral cortical membranes with 1 nM [3H]cyclohexyladenosine; type: cell membranes
[3] = Solubility in 0.1 M sodium phosphate, and at pH 7.2; type: physicochemical; settings: 0.1 M sodium phosphate buffer
[4] = molecular target: Adenosine A2 receptor (Cavia porcellus)
[5] = molecular target: Adenosine A2 receptor (Cavia porcellus); assay: Binding affinity against A2 adenosine receptor in [3H]adenine-labeled guinea pig cerebral cortical slices

Row | Ki (Adenosine receptor A1 [1]) [nM] | Ki [4] [nM] | SMILES | also measured
1 | 24 |  | CCCn1c(=O)c2nc(-c3ccc(OCC(=O)NCCNC(C)=O)cc3)[nH]c2n(CCC)c1=O | 
2 | 32 |  | CCCn1c(=O)c2nc(-c3ccc(OCC(=O)N(C)C)cc3)[nH]c2n(CCC)c1=O | 
3 |  |  | CCCn1c(=O)c2[nH]c(-c3ccc(OCC(N)=O)cc3)nc2n(CCC)c1=O | Ki (Adenosine receptor A1 [2]): 6 nM; solubility [3]: 26 µM (≈ 10 µg/mL)
4 |  | 40 | CCCn1c(=O)c2nc(-c3ccc(OCC(=O)ON4C(=O)CCC4=O)cc3)[nH]c2n(CCC)c1=O | 
5 |  |  | CCCn1c(=O)c2nc(-c3ccc(O)cc3)[nH]c2n(CCC)c1=O | solubility [3]: 3.2 µM (≈ 1.05 µg/mL)
6 |  | 30 | CCCn1c(=O)c2nc(-c3ccc(OCC(=O)OCC)cc3)[nH]c2n(CCC)c1=O | 
7 | 54 |  | CCCn1c(=O)c2nc(-c3ccc(OCC(=O)NCCNC(=O)CCCCC4SCC5NC(=O)NC54)cc3)[nH]c2n(CCC)c1=O (stereo not drawn) | Ki [5]: 180 nM
8 | 500 | 430 | Cn1c(=O)c2nc(-c3ccc(OCC(=O)O)cc3)[nH]c2n(C)c1=O | 
9 | 59 |  | CCCn1c(=O)c2nc(-c3ccc(OCC(=O)NN)cc3)[nH]c2n(CCC)c1=O | 
10 | 96 |  | CCCn1c(=O)c2nc(-c3ccc(OCC(=O)N(C(=O)NC4CCCCC4)C4CCCCC4)cc3)[nH]c2n(CCC)c1=O | 
11 | 2.2 | 320 | CC(=O)O.CCCn1c(=O)c2nc(-c3ccc(OCC(=O)NCCN(CC)Cc4ccc(O)cc4)cc3)[nH]c2n(CCC)c1=O | 
12 | 5 | 470 | CCCn1c(=O)c2nc(-c3ccc(OCC(=O)NCCCCCCCCN)cc3)[nH]c2n(CCC)c1=O | 
13 | 36 | 750 | CCCn1c(=O)c2nc(-c3ccc(OCC(=O)Nc4ccc(C)cc4)cc3)[nH]c2n(CCC)c1=O | 
14 | 26 |  | Cc1ccc(NC(=O)COc2ccc(-c3nc4c(=O)n(C)c(=O)n(C)c4[nH]3)cc2)cc1 | 
15 | 4.1 | 62 | CCCn1c(=O)c2nc(-c3ccc(OCC(=O)Nc4ccc(O)cc4)cc3)[nH]c2n(CCC)c1=O | 
16 |  |  | CCCn1c(=O)c2[nH]c(-c3ccc(OCC(=O)NCCN)cc3)nc2n(CCC)c1=O [XANTHINE AMINE CONGENER] | solubility [3]: 90 µM (≈ 38.6 µg/mL)
